Measured values: patent US9856225B2, “Substituted phenazines as antimicrobial agents” (University of Florida Research Foundation, Incorporated, priority 2013, dated 2018)
Values after ≈ are worked out from the molar mass of the structure shown. Values joined by “and” are separate entries in the source; they are usually repeats but may differ in a detail not shown here. Identical values can stand only once. Marks after values point to notes of the source that are not given here.

Key:
MRSA-2 biofilms [1] = test: Biofilm eradication assay (MBEC); type: cell-based, Staphylococcus aureus; settings: for Biofilm Eradication MBEC: MRSA-2
Description: Biofilm eradication assays. […] The protocol for the biofilm eradication assays was essentially the same as the protocols reported in Eun et al., J. Am. Chem. Soc., 2012, 134, 11322 and Ceri et al., J. Clin. Microbiol., 1999, 37, 1771. Biofilm eradication assays were essentially biofilm dispersion assays with the addition of a final treatment with fresh media (and incubation at 37° C. for 24 hours) instead of crystal violet staining. This final incubation allowed viable cells within the biofilm to grow. At the end of this final incubation in biofilm eradication assays, microtiter wells void of turbidity represented eradicated biofilms, and the lowest concentration at which no visible growth was observed was referred to as the minimum biofilm eradication concentration (MBEC). Potent biofilm eradicating small molecules are extremely rare (Fletcher et al., Tetrahedron, 2014, 70, 6373; Jennings et al., ChemBioChem, 2014, 15, 2211). For these experiments, MRSA-2 was selected as the model since MRSA-2 is a multidrug-resistant, biofilm-forming clinical isolate of Staphylococcus aureus (Priyaja et al., Cytotechnol., 2014, doi: 10.1007/s10616-014-9765-5).

MRSA-2 biofilms [2] = test: MRSA-2 biofilm dispersion assay; type: cell-based; settings: Staphylococcus aureus, 24 h, read-out: MRSA-2 biofilm dispersion EC50
MRSA-2 = test: MIC against MRSA-2; type: cell-based; settings: Staphylococcus aureus, read-out: MIC against MRSA-2
Description: Antibiotic Susceptibility Tests (MIC Assay Protocol). The minimum inhibitory concentration (MIC) for each compound described herein was determined by the broth microdilution method as recommended by the Clinical and Laboratory Standards Institute (CLSI) (Clinical and Laboratory Standards Institute. 2009. Methods for dilution antimicrobial susceptibility tests for bacteria that grow aerobically; approved standard, eighth edition (M7-A8)). In a 96-well plate, eleven two-fold serial dilutions of each compound were made in a final volume of 100 μL Luria Broth (one column served as a blank; see the MIC assay described herein). Each well was inoculated with 10^5 bacterial cells at the initial time of incubation, prepared from a fresh log phase culture (OD600 of 0.5). […] The concentration range tested for each compound during this study was 0.10 to 100 μM. DMSO served as the vehicle and negative control in each microdilution MIC assay. DMSO was serially diluted at the same concentration as the compounds with a top concentration of 1% v/v. Bacterial strains used: Staphylococcus aureus (ATCC 25923), Staphylococcus epidermidis (ATCC 12228) and Pseudomonas aeruginosa (PAO1). […]
Vancomycin's activity against MRSA-2. Vancomycin was also evaluated against MRSA-2 since vancomycin has been considered to be the drug of last resort against MRSA infections.

[3] = tested on: Staphylococcus epidermidis (ATCC 12228); test: MIC broth microdilution (CLSI), Luria Broth; type: cell-based; settings: for MIC: ATCC12228, Table 1, ATCC 12228, read-out: Staphylococcus epidermidis MIC; for fold more potent than compound 1: from MIC
How it was run: (§1)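 Two-fold serial dilutions (0.10–100 μM, eleven points) in Luria Broth, each well inoculated with 10^5 cells from log-phase culture (OD600 0.5), per CLSI broth microdilution. DMSO vehicle up to 1% v/v as negative control; kanamycin positive control for the staphylococci.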

[4] = tested on: Pseudomonas aeruginosa (PAO1); test: MIC broth microdilution (CLSI), Luria Broth; type: cell-based; settings: Table 1, PAO1, read-out: Pseudomonas aeruginosa MIC
How it was run: as §1

[5] = Hydrolysis stability in sterile water; type: physicochemical; settings: 24 hours at 37° C., static, TLC and NMR
Description: Compound storage. Solid stocks of the compounds described herein were stored at −80° C. in vials sealed with PARAFILM. Between 2.0 and 4.5 milligrams of each compound was weighed out, and a 10 mM DMSO stock solution of each compound were prepared. DMSO stock solutions were stored at room temperature in the dark (e.g., wrapped in aluminum foil). At this concentration, a few compounds required gentle heating to completely solubilize. DMSO stock solutions were not subjected to any freeze-thaw cycles to prevent compound breakdown. The compounds were stable in DMSO for several weeks under these mild storage conditions, with the exception of pyocyanin. Pyocyanin is unstable in DMSO at room temperature after one day. […] DMSO stock solutions of about 2 milligrams of pyocyanin were made fresh each day. The hydrolysis stability of select compounds was also tested, e.g., by subjecting these compounds to conditions mimicking the biofilm assays described herein. In one set of exemplary experiments, 3.2 to 4.5 mgs of each of compounds 18a, 12a, 23a, and 21 were treated with 1 mL of sterile water to form a mixture. Each of the mixtures was allowed to be incubated for 24 hours at 37° C. under static conditions analogous to the S. aureus biofilm inhibition assays described herein. After 24 hours, each of the mixtures was extracted with dichloromethane and evaluated, using TLC and NMR, for hydrolysis of each of compounds 18a, 12a, 23a, and 21 to compound 11.

stability to hydrolysis (to compound 11) [5]	Compound	Biofilm Eradication MBEC (MRSA-2 biofilms [1])	MIC [3]	other results
	CCC(=O)Oc1c(Br)cc(Br)c2nc3ccccc3nc12 [Compound 4a]	125 µM		
	Oc1c(Br)cc(Br)c2nc3ccccc3nc12 [Compound 11, 2,4-Dibromophenazin-1-ol]	100-200^c μM	0.78 µM to 1.56 µM and 0.28 µg/mL to 0.55 µg/mL	EC50 (MRSA-2 biofilms [2]): 3.53 µM; MIC (MRSA-2): 1.56 µM (≈ 0.552 µg/mL); fold more potent than compound 1 [3]: 32 fold; MIC [4]: > 100 µM; MBEC:MIC ratio (MRSA-2 biofilms [1]; MRSA-2 biofilm vs planktonic): 64-128
stable to hydrolysis	O=C(Oc1c(Br)cc(Br)c2nc3ccccc3nc12)c1ccc(Br)cc1 [Compound 12a]			
stable to hydrolysis	Cc1ccc(C(=O)Oc2c(Br)cc(Br)c3nc4ccccc4nc23)cc1 [Compound 18a]			
	O=C(Oc1c(Br)cc(Br)c2nc3ccccc3nc12)c1ccccc1 [Compound 23, 2,4-Dibromophenazin-1-yl benzoate]		1.56 µM and 0.72 µg/mL	
stable to hydrolysis	O=C(Oc1c(Br)cc(Br)c2nc3ccccc3nc12)c1ccco1 [Compound 23a]	62.5 to 100 µM		
	O=C(OCC(Cl)(Cl)Cl)Oc1c(Br)cc(Br)c2nc3ccccc3nc12 [Compound 27a]	125 µM		

Compound	stability to hydrolysis (to compound 11) [5]	Biofilm Eradication MBEC (MRSA-2 biofilms [1])	MIC [3]	other results
CC(=O)Oc1c(Br)cc(Br)c2nc3ccccc3nc12 [Compound 21, 2,4-Dibromophenazin-1-yl acetate]	stable to hydrolysis		0.78 µM and 0.31 µg/mL	fold more potent than compound 1 [3]: 64 fold
